Experimental data: patent US6984653B2, “Heterocyclic compounds, oxazole derivatives, process for preparation of the same and use thereof” (Takeda Pharmaceutical Company Limited, priority 2001, dated 2006)

Experiments:
HER2 = target: T1, HER2 (Homo sapiens, UniProt P04626); experiment: Suppression of receptor tyrosine-phosphorylation in human breast cancer cells BT-474; format: cell-based; settings: BT-474 cells, 2 hours with test compound, anti-phosphotyrosine antibody blot; read-out: Inhibition of intracellular HER2 phosphorylation BT-474 (IC50: μM)
T1 construct: Taking as 100% the amount of phosphorylation of the HER2 tyrosine in control group; endogenous in cells; host or cells: BT-474 human breast cancer cells
T1 sequence (P04626 23-1255): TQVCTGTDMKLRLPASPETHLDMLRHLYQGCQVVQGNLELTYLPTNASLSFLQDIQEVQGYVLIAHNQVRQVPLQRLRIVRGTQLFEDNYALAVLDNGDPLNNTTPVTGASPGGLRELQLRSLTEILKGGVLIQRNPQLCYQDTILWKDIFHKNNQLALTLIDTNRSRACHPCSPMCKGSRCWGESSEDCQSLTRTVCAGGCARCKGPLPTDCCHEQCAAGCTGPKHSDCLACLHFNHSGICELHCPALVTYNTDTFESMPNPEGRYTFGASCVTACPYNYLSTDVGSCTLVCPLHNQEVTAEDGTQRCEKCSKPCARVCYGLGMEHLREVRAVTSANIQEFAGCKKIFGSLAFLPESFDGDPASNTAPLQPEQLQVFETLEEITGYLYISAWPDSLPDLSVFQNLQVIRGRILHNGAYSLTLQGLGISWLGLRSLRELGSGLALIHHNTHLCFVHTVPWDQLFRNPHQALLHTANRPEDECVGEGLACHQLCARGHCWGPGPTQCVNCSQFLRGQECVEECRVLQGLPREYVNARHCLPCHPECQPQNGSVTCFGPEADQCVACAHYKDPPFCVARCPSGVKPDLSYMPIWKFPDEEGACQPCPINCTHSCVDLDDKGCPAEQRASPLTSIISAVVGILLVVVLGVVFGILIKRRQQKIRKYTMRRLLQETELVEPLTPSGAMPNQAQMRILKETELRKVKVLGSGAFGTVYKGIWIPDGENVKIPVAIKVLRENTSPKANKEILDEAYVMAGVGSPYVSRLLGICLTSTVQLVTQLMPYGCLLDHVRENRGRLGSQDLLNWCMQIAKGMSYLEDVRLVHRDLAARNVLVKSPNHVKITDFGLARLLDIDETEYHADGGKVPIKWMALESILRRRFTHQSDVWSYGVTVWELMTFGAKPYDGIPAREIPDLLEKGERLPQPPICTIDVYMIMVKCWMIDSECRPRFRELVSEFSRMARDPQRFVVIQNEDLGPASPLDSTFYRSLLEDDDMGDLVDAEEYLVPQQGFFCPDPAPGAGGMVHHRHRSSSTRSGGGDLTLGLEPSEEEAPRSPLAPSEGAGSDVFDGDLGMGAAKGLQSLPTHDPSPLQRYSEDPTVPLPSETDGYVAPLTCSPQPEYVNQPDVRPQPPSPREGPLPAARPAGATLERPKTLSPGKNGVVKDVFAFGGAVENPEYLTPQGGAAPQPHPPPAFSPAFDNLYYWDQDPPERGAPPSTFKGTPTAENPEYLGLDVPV
Protocol: A suspension of human breast cancer cell BT-474 (500 μl (300,000 cells)) were sown into a 24-well plate, and cultured at 37° C. in the presence of 5% carbon dioxide. On the following day, 250 μl of a solution of the test compound, which was previously 4-fold diluted, was added. After 2 hours, the extraction was added to stop the reaction and the protein was extracted. This protein was subjected to protein electrophoresis to separate and transferred to a nylon filter. This filter was reacted with an anti-phosphotyrosine antibody; the reaction product was luminated. The amount of film photosensitization was determined using an image analyzer. Taking as 100% the amount of phosphorylation of the HER2 tyrosine in control group, the ratio of the amount of phosphorylation of the HER2 tyrosine in each group receiving a solution of the test compound at each concentration was determined, and the test compound concentration required to achieve 50% suppression by the test compound of the amount of phosphorylation of HER2 tyrosine (IC50 value) was calculated.

[1] = test system: human breast cancer cell BT-474; experiment: Inhibitory action on breast cancer cell BT-474 proliferation in vitro (SRB); format: cell-based; settings: 120 h, BT-474 cells, cultured for 5 days, SRB staining, read-out: Cell growth inhibition BT-474 (IC50: μM)
Protocol: A suspension of human breast cancer cell BT-474 (100 μl (6,000 cells)) were sown to a 96-well microplate and cultured at 37° C. in the presence of 5% carbon dioxide. On the following day, 100 μl of a solution of each test compound, which was previously diluted 2-fold, was added, and the cells were cultured for 5 days. After the culture medium containing the test compound was removed, the cells were washed and fixed with 50% trichloroacetic acid, after which a 0.4% (w/v) SRB solution (dissolved in 1% acetic acid) was added to stain the cells (Skehan et al., Journal of the National Cancer Institute, Vol. 82, pp. 1107-1112, 1990). After the pigment solution was removed and the plate was washed with a 1% acetic acid solution, 100 μl of an extract (10 mM Tris solution) was added to dissolve the pigment; absorbance was measured at an absorption wavelength of 550 nm to quantify the amount of cells as protein content. Taking as 100% the absorbance for the control group, which received no test compound solution, the ratio of the absorbance for each treatment group was determined, and the compound concentration required to achieve 50% suppression of the residual cell content relative to the control (IC50 value) was calculated.

SMILES	IC50 (HER2) [µM]	IC50 [1] [µM]
CC(C)NC(=O)OCCc1nccn1CCCCc1ccc(OCc2coc(/C=C/c3ccc(C(F)(F)F)cc3)n2)cc1 [Example 1, 2-[1-[4-[4-[[2-[(E)-2-[4-(trifluoromethyl)phenyl]ethenyl]-1,3-oxazol-4-yl]methoxy]phenyl]butyl]-1H-imidazol-2-yl]ethyl isopropylcarbamate]	< 4	< 0.05
O=C(OCCc1nccn1CCCCc1ccc(OCc2coc(/C=C/c3ccc(C(F)(F)F)cc3)n2)cc1)N1CCCC1 [Example 3, 2-[1-[4-[4-[[2-[(E)-2-[4-(trifluoromethyl)phenyl]ethenyl]-1,3-oxazol-4-yl]methoxy]phenyl]butyl]-1H-imidazol-2-yl]ethyl 1-pyrroridinecarboxylate]	< 4	< 0.05
O=C(CCc1nccn1CCCCc1ccc(OCc2coc(/C=C/c3ccc(C(F)(F)F)cc3)n2)cc1)N1CCCC1 [Example 6, 1-{3-[1-(4-{4-[(2-{(E)-2-[4-(trifluoromethyl)phenyl]ethenyl}-1,3-oxazol-4-yl)methoxy]phenyl}butyl)-1H-imidazol-2-yl]propanoyl}pyrrolidine]	< 4	< 0.05
CS(=O)(=O)CCc1nccn1CCCCc1ccc(OCc2coc(/C=C/c3ccc(F)cc3)n2)cc1 [Example 11, 2-[(E)-2-(4-fluorophenyl)ethenyl]-4-[[4-[4-[2-[2-(methylsulfonyl)ethyl]-1H-imidazol-1-yl]butyl]phenoxy]methyl]-1,3-oxazole]	< 4	–

Results, then the compound that gave them:

IC50 (HER2) [µM]	IC50 [1] [µM]	SMILES
< 4	< 0.05	CN(C)C(=O)CCc1nccn1CCCCc1ccc(OCc2coc(/C=C/c3ccc(C(F)(F)F)cc3)n2)cc1 [Example 5, N,N-dimethyl-3-[1-[4-[4-[[2-[(E)-2-[4-(trifluoromethyl)phenyl]ethenyl]-1,3-oxazol-4-yl]methoxy]phenyl]butyl]-1H-imidazol-2-yl]propanamide]
< 4	0.15	CS(=O)(=O)NCCc1nccn1CCCCc1ccc(OCc2coc(/C=C/c3ccc(C(F)(F)F)cc3)n2)cc1 [Example 16, N-[2-[1-[4-[4-[[2-[(E)-2-[4-(trifluoromethyl)phenyl]ethenyl]-1,3-oxazol-4-yl]methoxy]phenyl]butyl]-1H-imidazol-2-yl]ethyl]methanesulfonamide]
< 4	–	CS(=O)(=O)CCc1nccn1CCCCc1ccc(OCc2coc(/C=C/c3ccc(C(F)(F)F)cc3)n2)cc1 [Example 17, 4-[[4-[4-[2-[2-(methylsulfonyl)ethyl]-1H-imidazol-1-yl]butyl]phenoxy]methyl]-2-[(E)-2-[4-(trifluoromethyl)phenyl]ethenyl]-1,3-oxazole]
